Ends that are not written are not given here. C10PNA = 10-mer peptide nucleic acid with ten cytosine bases
Tests used:
[1] = tested on: A/Kansas/14/2017 strain (A/H3N2); format: in vivo, BALB/c mice; details: for GMT (geometric mean IgG antibody titer) / GMT ratio to the non-adjuvanted group: BALB/c mice; for GMT (geometric mean IgG antibody titer): subcutaneous 0.1 mL, 0.6 μg HA/strain, serum 21 days after administration; for GMT ratio to the non-adjuvanted group: subcutaneous
[2] = tested on: B/Maryland/15/2016 strain (B/Victoria); format: in vivo, BALB/c mice; details: for GMT (geometric mean IgG antibody titer) / GMT ratio to the non-adjuvanted group: BALB/c mice; for GMT (geometric mean IgG antibody titer): subcutaneous 0.1 mL, 0.6 μg HA/strain, serum 21 days after administration; for GMT ratio to the non-adjuvanted group: subcutaneous

## 5′-[…]-3′ (SEQ ID NO: 9) [ODN1826]
[1]
  GMT (geometric mean IgG antibody titer): 65838
[1]; Day 21
  GMT ratio to the non-adjuvanted group: 5.1
  Subclass ratio of IgG1/IgG2a: IgG2a dominant
[2]
  GMT (geometric mean IgG antibody titer): 31152
[2]; Day 21
  GMT ratio to the non-adjuvanted group: 2.1
  Subclass ratio of IgG1/IgG2a: IgG2a dominant

## MIP-03: HIV TAT-derived peptide of 13 amino acids (SEQ ID NO: 1) covalently bound at its C-terminal to C10PNA (GRKKRRQRRRPPQ-C10PNA)
[1]
  GMT (geometric mean IgG antibody titer): 112071
[1]; Day 21
  GMT ratio to the non-adjuvanted group: 8.7
[2]
  GMT (geometric mean IgG antibody titer): 25802
[2]; Day 21
  GMT ratio to the non-adjuvanted group: 1.7

From US20240207395A1, “ADJUVANT ACTIVITY ENHANCER AND ADJUVANT COMPOSITION” (priority 2021, published 2024)
